The text below walks through data of patent US8759384B2, “Oxo-imidazolyl compounds” (priority 2008, dated 2014).

What is called inhibition is the change of the read-out against control, counted positive when it falls.

The test system of experiment [1] is B. anthracis ΔSterne. The experiment can be described thus: microbe, parasite or virus in culture. Type of experiment: cell-based. Conditions: Bacillus anthracis; Conc. 3 μM; read-out: Inhibitive activity Anthracis (% inhibition of growth).
The subject of experiment [2] is Staphylococcus aureus MRSA. The experiment can be described thus: microbe, parasite or virus in culture. Type of experiment: cell-based. Conditions: Conc. 3 μM, read-out: Inhibitive activity MRSA (% inhibition of growth).

`O=C(O)C(Cc1ccccc1)N1C(=O)/C(=C\c2ccc(-c3ccc(Br)cc3)s2)NC1=S` (centres unmarked) [EX. 7, 2-(4-((5-(4-Bromophenyl)thiophen-2-yl)methylene)-5-oxo-2-thioxoimidazolidin-1-yl)-3-phenylpropanoic acid]: in experiment [1], the inhibition at 3 µM worked out at 67.9%.

For the compound `O=C(O)C(Cc1ccccc1)N1C(=O)/C(=C\c2ccc(-c3ccc(Cl)c(Cl)c3)o2)NC1=S` (centres unmarked) [EX. 6, 2-(4-((5-(3,4-Dichlorophenyl)furan-2-yl)methylene)-5-oxo-2-thioxoimidazolidin-1-yl)-3-phenylpropanoic acid], in experiment [2], the inhibition at 3 µM is -3.72%.
